Measured values reported in ChEMBL document CHEMBL1201862, “PubChem BioAssay data set” (2004).
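1) Cells in 96-well plates. 2) Compound, 48 h, 5 concentrations. 3) Linear interpolation between surrounding doses. 4) Unreached endpoint = highest concentration. The concentration for 50% growth inhibition is given as GI50.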 Active and inactive are the calls of the source. Rule as the data show it: active = GI50 up to about 1.1 µM and inactive = higher.

How the values were obtained:
Test in all cases: growth of human tumour cells (NCI), 48 h
[1] = tested on: OVCAR-3
[2] = tested on: SNB-75
[3] = tested on: SNB-19
[4] = tested on: CCRF-CEM
[5] = tested on: SF-539
[6] = tested on: IGROV-1
[7] = tested on: UACC-62
[8] = tested on: LOX IMVI
[9] = tested on: SW-620
[10] = tested on: NCI-H23
[11] = tested on: BT-549
[12] = tested on: PC-3
[13] = tested on: HCT-116
[14] = tested on: SF-295
[15] = tested on: HT-29
[16] = tested on: UO-31
[17] = tested on: HOP-62
[18] = tested on: SF-268
[19] = tested on: MDA-MB-435
[20] = tested on: HL-60

Measured: GI50

Oc1cccc(/C=N/N=c2/[nH][nH]/c(=N/N=C/c3cccc(O)c3)c3ccccc23)c1
inactive: [1] 13.9 µM | [2] 12.9 µM | [3] 24.4 µM | [4] 3.83 µM | [5] 16.9 µM | [6] 11.6 µM | [7] 13.5 µM | [8] 11.7 µM | [9] 14.6 µM | [10] 16.2 µM | [11] 18.5 µM | [12] 15.8 µM | [13] 11.5 µM | [14] 13.5 µM | [15] 24.1 µM | [16] 15 µM | [17] 12.5 µM | [18] 26.6 µM | [19] 22.9 µM

O=[N+]([O-])C(/C(Cl)=C(/Cl)N1CCOCC1)=C1\Nc2ccccc2O1
inactive: [1] 24.4 µM | [2] > 100 µM | [3] > 100 µM | [4] > 100 µM | [5] > 100 µM | [7] 96.2 µM | [9] > 100 µM | [10] > 100 µM | [11] > 100 µM | [12] > 100 µM | [13] > 100 µM | [14] > 100 µM | [15] > 100 µM | [16] > 100 µM | [17] > 100 µM | [18] 28.9 µM | [19] > 100 µM

COC(=O)c1c(OC(C)=O)ccc2c1c1cc3ccccc3c(OC(C)=O)c1n2C
inactive: [1] 23.9 µM | [2] 4.67 µM | [3] 68.5 µM | [4] 28.1 µM | [5] 17.5 µM | [6] 2.73 µM | [7] 30.8 µM | [10] 17.7 µM | [11] 14.6 µM | [12] 30.1 µM | [13] 15.4 µM | [14] 40.5 µM | [15] 15.2 µM | [16] 17.1 µM | [17] 50 µM | [20] 19.3 µM | [18] 27.7 µM | [19] 25.6 µM

COC(=O)[C@H](Cc1c[nH]c2ccccc12)NC(=O)c1ccc(CNC(=O)/C=C/c2cccc(Oc3ccccc3)c2)cc1
inactive: [1] > 100 µM | [2] 79.1 µM | [3] 91.6 µM | [4] 56.1 µM | [6] > 100 µM | [7] 36.1 µM | [9] > 100 µM | [10] 52.6 µM | [11] 39.9 µM | [12] > 100 µM | [13] > 100 µM | [14] > 100 µM | [15] > 100 µM | [16] > 100 µM | [17] > 100 µM | [18] > 100 µM | [19] 5.7 µM

COc1ccc(CNc2nc(NCc3ccc(OC)cc3)nc(Nc3ccccc3)n2)cc1
inactive: [1] 2.62 µM | [2] 4.13 µM | [3] 17.8 µM | [5] 14.2 µM | [6] 9.71 µM | [7] 4.14 µM | [9] 6.46 µM | [10] 12.4 µM | [11] > 100 µM | [12] 5.69 µM | [13] 11.4 µM | [14] 2.58 µM | [15] 1.93 µM | [16] > 100 µM | [17] > 100 µM | [20] 2.44 µM | [18] > 100 µM | [19] 2.22 µM

COc1ccc(-n2c(SC(CN3CCOCC3)CN3CCCC3=O)nc3ccccc3c2=O)cc1 (stereo unspecified)
inactive: [1] > 100 µM | [2] 70.8 µM | [3] > 100 µM | [4] 67.5 µM | [5] 58.7 µM | [6] > 100 µM | [7] > 100 µM | [9] > 100 µM | [10] 96.4 µM | [11] > 100 µM | [12] > 100 µM | [13] > 100 µM | [14] > 100 µM | [15] > 100 µM | [16] 35.6 µM | [20] 85.9 µM | [18] > 100 µM | [19] > 100 µM

Cc1cn(C2CC(O)C(Cn3nncc3Cn3nc(Br)c(=O)[nH]c3=O)O2)c(=O)[nH]c1=O (stereo unspecified)
inactive: [1] > 100 µM | [3] > 100 µM | [4] > 100 µM | [5] > 100 µM | [6] > 100 µM | [7] > 100 µM | [8] > 100 µM | [9] > 100 µM | [10] > 100 µM | [11] > 100 µM | [12] > 100 µM | [13] > 100 µM | [14] > 100 µM | [16] > 100 µM | [17] > 100 µM | [18] > 100 µM | [19] > 100 µM

Cc1csc2n(C)c(=O)c3ccccc3[n+]12
inactive: [1] > 100 µM | [3] > 100 µM | [4] > 100 µM | [5] > 100 µM | [6] > 100 µM | [7] > 100 µM | [8] > 100 µM | [9] > 100 µM | [10] > 100 µM | [11] 79.4 µM | [12] > 100 µM | [13] > 100 µM | [14] > 100 µM | [15] > 100 µM | [16] > 100 µM | [17] > 100 µM | [20] > 100 µM | [18] > 100 µM | [19] > 100 µM

CCC(C=O)P1(=O)OC(C)(C)CN1C(C)(C)C (stereo unspecified)
inactive: [1] 20.6 µM | [3] > 100 µM | [5] > 100 µM | [6] > 100 µM | [7] > 100 µM | [8] > 100 µM | [9] > 100 µM | [10] > 100 µM | [11] > 100 µM | [12] 84.3 µM | [13] 59.8 µM | [14] 32.5 µM | [15] > 100 µM | [16] > 100 µM | [17] 62.5 µM | [18] 88.3 µM | [19] 99.5 µM

O=S(=O)(CCC[C@H]1[C@@H](CCOCc2ccccc2)C2CCCN1O2)c1ccccc1 (stereo partly specified)
inactive: [1] > 100 µM | [2] > 100 µM | [3] > 100 µM | [4] > 100 µM | [5] > 100 µM | [6] > 100 µM | [7] > 100 µM | [9] > 100 µM | [10] > 100 µM | [11] 41 µM | [12] > 100 µM | [13] > 100 µM | [14] > 100 µM | [15] > 100 µM | [16] > 100 µM | [17] > 100 µM | [18] > 100 µM | [19] > 100 µM

CCN(CC)CCO/N=C1/C=C2CCC3C(CC[C@@]4(C)C3CC[C@]4(C)O)[C@@]2(C)CC1 (stereo partly specified)
inactive: [1] 2.8 µM | [2] 2.89 µM | [3] 11.6 µM | [4] 1.29 µM | [5] 3.18 µM | [6] 4.8 µM | [7] 2.76 µM | [8] 4.1 µM | [10] 6.75 µM | [11] 11.7 µM | [12] 4.6 µM | [13] 4.21 µM | [14] 2.33 µM | [15] 1.82 µM | [16] 5.41 µM | [17] 4.06 µM | [18] 8.09 µM | [19] 1.69 µM
